From patent US20070141723A1, “Immunohistochemistry staining controls” (priority 2005, published 2007)
*: point of attachment. FITC = O=C1OC2(c3ccc(O)cc3Oc3cc(O)ccc32)c2ccc(NC(=S)*)cc21

How the values were obtained:
[1] = system: 1D5 monoclonal antibody; test: Peptide ELISA of synthetic ER peptides with 1D5; assay type: binding, mouse; conditions: compared among ER peptides 3, 4 and 6
Description: Three synthetic peptides (designated as ER peptide 3, ER peptide 4, and ER peptide 6), that are representative of above consensus phage sequence, were synthesized (by SynPep Labs, Dublin, Calif. and Bachem Labs, King of Prussia, Pa.) and tested for specificity/affinity to 1D5 monoclonal antibody.

[2] = target: ER peptide mimic; test: immunostaining of ER peptide mimic spots on matrix, semi-quantitative colour score

Row | Staining intensity (1-4+) [2] | Substance | peptide ELISA signal [1]
1 |  | Ac-DFQCPYVECVVNAPGGK (FITC) GK-CONH2 (Ac-DFQCPYVECVVNAPGGK(FITC)GK-NH2; cysteine pairing not given here) [ER peptide 3] | highest signal
2 | 4 1-4+ scale | anti-human estrogen receptor mouse monoclonal antibody 1D5 | 
